Data from patent publication US12728119B2, “Pharmaceutical composition for preventing or treating cancer comprising 3-ketoacyl CoA thiolase inhibitor and carnitine acylcarnitine carrier inhibitor” (NATIONAL CANCER CENTER, priority 2020, dated 2026).
Where “and” joins values, the source holds several entries; their conditions need not be identical. Equal entries are not always repeated.

What was measured:
Test in all cases: SRB analysis 2
Type in all cases: cell-based
[1] = tested on: SW1990 pancreatic cancer cells; settings: 48 hours
Description: (§1) The SRB assay was performed as follows: each cell line (100 μl) was seeded into 96-well microtiter plates at densities ranging from 5,000 to 20,000 cells/well depending on the doubling time of each cell line. After cell seeding, microtiter plates were incubated for 24 h before addition of experimental drug. Drugs were prepared at the indicated concentrations and 100 μl was added to each well; The plates were then incubated in a CO2 incubator. Then, cold TCA was added to terminate the assay. Cells were fixed in situ by gentle addition of 50 μl of cold 50% (w/v) TCA (final concentration: 10% TCA) and incubated at 4° C. for 60 min. The supernatant was discarded and the plate was washed 5 times with tap water and then air dried. A solution (100 μl) of 0.4% (w/v) SRB (Sulforhodamine B) in 1% acetic acid was added to each well, and the plate was left at room temperature for 10 minutes. After staining, the plates were air dried after washing 5 times with 1% acetic acid to remove unbound dye. The bound dye was then solubilized with 10 mM trizma base and the absorbance was recorded at 515 nm using an automated plate reader.

[2] = tested on: MIA PaCa2 pancreatic cancer cells; settings: MIA PaCa-2, 48 hours
Description: as §1

[3] = tested on: SNU-213 pancreatic cancer cells; settings: SNU213, 48 hours
Description: as §1

[4] = tested on: AsPC-1 pancreatic cancer cells; settings: 48 hours
Description: as §1

[5] = tested on: Panc-1 pancreatic cancer cells; settings: 48 hours
Description: as §1

[6] = tested on: BxPC-3 pancreatic cancer cells; settings: 48 hours
Description: as §1

[7] = tested on: SU.86.86 pancreatic cancer cells; settings: 48 hours
Description: as §1

[8] = tested on: SNU-324 pancreatic cancer cells; settings: SNU324, 48 hours
Description: as §1

Cc1c(OCC(F)(F)F)ccnc1C[S+]([O-])c1nc2ccccc2[nH]1 (centres unmarked) [KN511, lansoprazole]
degree of cell growth based on the control (100%) ([1]; KN511 50 μM): 2.62% and 7.49% | degree of cell growth based on the control (100%) ([1]; KN511 100 μM): −25.25% | degree of cell growth based on the control (100%) ([2]; KN511 50 μM): 72.22% and 68.24% | degree of cell growth based on the control (100%) ([2]; KN511 100 μM): 24.61% and 16.12% | degree of cell growth based on the control (100%) ([3]; KN511 50 μM): 46.12% and 49.55% | degree of cell growth based on the control (100%) ([4]; KN511 50 μM): 44.46% and 38.02% | degree of cell growth based on the control (100%) ([4]; KN511 100 μM): 20.33% and 14.98% | degree of cell growth based on the control (100%) ([5]; KN511 50 μM): 65.77% and 39.30% | degree of cell growth based on the control (100%) ([6]; KN511 50 μM): 30.51% and 41.39% | degree of cell growth based on the control (100%) ([6]; KN511 100 μM): −4.87% and −1.66% | degree of cell growth based on the control (100%) ([7]; KN511 50 μM): 44.93% and 31.47% | degree of cell growth based on the control (100%) ([8]; KN511 50 μM): 16.15% and 17.09% | degree of cell growth based on the control (100%) ([8]; KN511 100 μM): 4.93% and 8.06%

COc1ccnc(C[S+]([O-])c2nc3ccc(OC(F)F)cc3[nH]2)c1OC (centres unmarked) [KN512, pantoprazole]
degree of cell growth based on the control (100%) ([1]; KN512 100 μM): 70.30% and 73.00% | degree of cell growth based on the control (100%) ([1]; KN512 200 μM): 25.58% and 41.93% | degree of cell growth based on the control (100%) ([2]; KN512 100 μM): 62.60% and 66.74% | degree of cell growth based on the control (100%) ([2]; KN512 200 μM): 5.82% and 1.98% | degree of cell growth based on the control (100%) ([3]; KN512 100 μM): 66.09% and 59.49% | degree of cell growth based on the control (100%) ([3]; KN512 200 μM): 36.60% and 51.18% | degree of cell growth based on the control (100%) ([4]; KN512 100 μM): 64.75% and 71.27% | degree of cell growth based on the control (100%) ([4]; KN512 200 μM): 23.37% and 25.43% | degree of cell growth based on the control (100%) ([5]; KN512 100 μM): 54.90% and 57.01% | degree of cell growth based on the control (100%) ([5]; KN512 200 μM): 6.03% and 12.81% | degree of cell growth based on the control (100%) ([6]; KN512 100 μM): 34.14% and 49.52% | degree of cell growth based on the control (100%) ([6]; KN512 200 μM): −10.63% and −6.75% | degree of cell growth based on the control (100%) ([7]; KN512 100 μM): 59.26% and 70.59% | degree of cell growth based on the control (100%) ([7]; KN512 200 μM): 19.69% and 26.47% | degree of cell growth based on the control (100%) ([8]; KN512 100 μM): 61.20% and 74.13% | degree of cell growth based on the control (100%) ([8]; KN512 200 μM): 23.82% and 21.77%
